Experimental data from ChEMBL document CHEMBL1139001, “Alkyl-linked bis-THTT derivatives as potent in vitro trypanocidal agents” (Bioorg Med Chem Lett, 2006).

Tests used:
[1] = Therapeutic index (cytotoxicity/antitrypanosomal activity); assay type: cell-based; settings: human, KB cells; read-out: Ratio IC50
[2] = Therapeutic index, ratio of cytotoxicity/antiplasmodial activity; assay type: cell-based; settings: human, KB cells; read-out: Ratio IC50
[3] = Therapeutic index (cytotoxicity/antiprotozoal activity); assay type: cell-based; settings: human, KB cells; read-out: Ratio IC50
KB = assay: Cytotoxicity against KB cell line; assay type: functional, cell-based; settings: Homo sapiens
Leishmania donovani = assay: Antiprotozoal activity against Leishmania donovani; assay type: functional, organism-based
Plasmodium falciparum = assay: Antiplasmodial activity against Plasmodium falciparum 3D7; assay type: functional, organism-based
[4] = tested on: Trypanosoma brucei rhodesiense; assay: Antitrypanosomal activity against Trypanosoma brucei rhodesiense STIB900; assay type: functional, organism-based

Row | Compound | selectivity ratio [1] | selectivity ratio [2] | selectivity ratio [3] | IC50 (KB) [µM] | IC50 (Leishmania donovani) [µM] | IC50 (Plasmodium falciparum) [µM] | IC50 [4] [µM]
1 | CC(C)(CN1CN(C(Cc2ccccc2)C(=O)O)CSC1=S)CN1CN(C(Cc2ccccc2)C(=O)O)CSC1=S (stereo unspecified) | 2.1 | 0.2 | 0.4 | 2.21 | 5.54 | 9.56 | 1.04
2 | NC(=O)CCC(C(=O)O)N1CSC(=S)N(CCCCCCN2CN(C(CCC(N)=O)C(=O)O)CSC2=S)C1 (stereo unspecified) | 5.8 | 4.7 |  | 52 | > 49 | 11 | 9.37
3 | O=C(O)CN1CSC(=S)N(CCCCCCN2CN(CC(=O)O)CSC2=S)C1 | 11.4 | 0.8 | 1.2 | 8.33 | 7.07 | 11 | 0.73
4 | O=C(O)CCCCN1CSC(=S)N(CCCCCCN2CN(CCCCC(=O)O)CSC2=S)C1 | 44.4 | 1 | 2.4 | 16.1 | 6.47 | 16.9 | 0.36
5 | CC(C)(CN1CN(CC(=O)O)CSC1=S)CN1CN(CC(=O)O)CSC1=S | 1.7 | 1.3 | 0.7 | 5.09 | 6.85 | 3.76 | 2.88
6 | O=C(O)CC(C(=O)O)N1CSC(=S)N(CCCCCCN2CN(C(CC(=O)O)C(=O)O)CSC2=S)C1 (stereo unspecified) |  | 0.9 |  | 76.3 | 30.2 | 23.2 | 3.6
7 | CSCCC(C(=O)O)N1CSC(=S)N(CCCCCCN2CN(C(CCSC)C(=O)O)CSC2=S)C1 (stereo unspecified) | 41.2 | 3.7 | 7.3 | 52.5 | 7.26 | 14.2 | 2.3
8 | O=C(O)CCCN1CSC(=S)N(CCCCCCN2CN(CCCC(=O)O)CSC2=S)C1 |  | 2 |  | 11.7 | 24.3 | 43.3 | 4.27
9 | CC(C)(CN1CN(CCCCC(=O)O)CSC1=S)CN1CN(CCCCC(=O)O)CSC1=S | 3.4 | 0.9 | 1.1 | 8.16 | 7.27 | 9.04 | 2.48
10 | O=C(O)C(Cc1ccccc1)N1CSC(=S)N(CCCCCCN2CN(C(Cc3ccccc3)C(=O)O)CSC2=S)C1 (stereo unspecified) | 7.9 | 0.6 | 1.1 | 5.73 | 5.42 | 9.13 | 0.73
11 | O=C(O)CCN1CSC(=S)N(CCCCCCN2CN(CCC(=O)O)CSC2=S)C1 | 21.8 | 0.9 | 5.6 | 12.3 | 2.18 | 13.1 | 0.56
12 | NC(=O)CC(C(=O)O)N1CSC(=S)N(CCCCCCN2CN(C(CC(N)=O)C(=O)O)CSC2=S)C1 (stereo unspecified) | > 10 | > 2 | > 30 | > 51.7 | 19.5 | 39.5 | 5.34
13 | N=C(N)c1ccc(OCCCCCOc2ccc(C(=N)N)cc2)cc1 [PENTAMIDINE] |  |  |  |  |  |  | 0.011
14 | COc1cc([C@@H]2c3cc4c(cc3[C@H](O)[C@H]3COC(=O)[C@H]23)OCO4)cc(OC)c1OC [PODOFILOX] |  |  |  | 0.0036 |  |  | 
